Test results published in patent US7544700B2, “Pharmaceutically active sulfonamide derivatives bearing both lipophilic and ionisable moieties as inhibitors of protein JunKinases” (Laboratoires Serono SA, priority 2000, dated 2009).

How the values were obtained:
[1] = system: Hela luciferase reporter-c-Jun (HLR-c-Jun) cell lines; experiment: C-Jun reporter assay; format: cell-based; details: Homo sapiens, MEKK-1 transfected HLR-c-Jun cells
Source text: The phosphorylation of the transcriptional factor, c-jun, by JNK in the MAP kinase signal transduction pathway can be followed via a trans-reporting system such as the commercially available PathDetect® (32).
A trans-reporting system allows one to follow, via Luciferase activity, the activation status of a fusion trans-activator protein. The trans-activator protein consists of the activation domain of the transcriptional factor of interest (c-jun) fused with a yeast transcriptional activator, GAL4 DNA binding domain (dbd). The GAL4 dbd has the advantage that no known mammalian transcriptional factors can bind to it and therefore the background noise of the assay is very low.
In the present case, Hela luciferase reporter-c-Jun (HLR-c-Jun) cell lines which constitutively express GAL4-cJun were used.
The MEKK-1 gene was inserted. MEKK-1 is a MAPKKK which triggers the activation of JNK. Expression of wild type MEKK-1 is sufficient for JNK activation (33).
Once, JNK is activated it can induce the phosphorylation of the c-jun domain of the fusion trans-activator protein (GAL4dbd-cJun) which forms a dimer. The dimer is then is able to bind to a GAL4 upstream activating sequence (GAL4 UAS) of the reporter which activates Luciferase expression.
Luciferase expression is detected by luminescence using a simple assay such as Dual-Luciferase® Reporter Assay System (34) in which Renilla is used as a “control reporter”.
Inhibition of JNK is observed as a decrease in Luciferase expression and detected by a decrease in luminescence.
HLR-c-Jun cells are cultured in DMEM High Glc supplemented with 10% FCS (Sigma), 2 mM Glutamine (Gibco), P/S, Hygromycin b 100 μg/mL and G418 250 μg/mL.
The cell suspensions are diluted with medium to give about 3.5×10^6 cells/mL and […] of cell suspension are put onto 2 10 cm culture dishes containing 9 mL of culture medium.
Transfections • Control: 0.2 μg pTK Renilla, 5.8 μg pBluescript KS, 500 μl OPTIMEM (GOBCO), 18 μl Fugene 6. • Induced: 0.1 μg pMEKK1, 0.2 μg pTK Renilla, 5.7 μg pBluescript KS, 500 μl OPTIEM (GIBCO), 18 μl Fugene 6 30′ RT.
The transfection mixture is added to the plated cells. The plates are incubated over night at 37° C. in a humidified atmosphere of 5% CO2 in air.
A 96 wells plate (100 μl of culture medium per well) is prepared. Negative control (vehicle): 2 μl of DMSO is added to the 100 μl (in triplicate). […]
The medium is removed from the plate and the cells are washed two times with 100 μl PBS. […] The luminometer reading is recorded.
−50 μl of Luciferase Assay Reagent II are injected and readings are recorded at 5 and 10 minutes.
50 μl of Stop & Glo® Reagent are injected and readings are recorded at 5 and 10 minutes.
The relative luminescence is then measured: RLU Luciferase/RLU Renilla.

JNK1 = JNK1 (Homo sapiens, UniProt P45983); experiment: JNK1 inhibition; format: biochemical; details: read-out: inhibition (IC50) with regard to JNK1
Chain of JNK1 (P45983 whole entry, species assumed): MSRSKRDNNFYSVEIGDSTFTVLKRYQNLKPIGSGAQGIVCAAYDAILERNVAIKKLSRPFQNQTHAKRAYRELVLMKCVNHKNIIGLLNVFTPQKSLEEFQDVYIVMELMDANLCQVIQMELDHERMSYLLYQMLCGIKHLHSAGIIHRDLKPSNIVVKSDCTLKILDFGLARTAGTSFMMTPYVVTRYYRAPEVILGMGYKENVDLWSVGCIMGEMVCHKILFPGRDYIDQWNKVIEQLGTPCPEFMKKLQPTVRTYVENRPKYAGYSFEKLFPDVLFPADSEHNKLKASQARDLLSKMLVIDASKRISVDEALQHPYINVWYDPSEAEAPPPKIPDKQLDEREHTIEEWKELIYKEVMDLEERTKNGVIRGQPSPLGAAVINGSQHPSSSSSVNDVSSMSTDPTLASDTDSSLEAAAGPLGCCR

- IC50 [1]: < 700 nM
- IC50 (JNK1): 100 to 700 nM
SMILES: COc1cccc(C(=O)NCc2ccc(S(=O)(=O)N3CCC(NCc4ccc(C(F)(F)F)cc4)CC3)s2)c1 [Example 1, 3-Methoxy-N-{[5-({4-[(4-trifluoromethylbenzyl)amino]piperidin-1-yl}sulfonyl)thien-2-yl]methyl}benzamide]
